{
  "source": "paper PMC3200115",
  "about": "“Peptide Inhibition of Topoisomerase IB from Plasmodium falciparum” (Molecular Biology International, 2011)",
  "key": {"[1]": {"test_system": "P. falciparum topoisomerase I (pfTopoI)", "experiment": "Plasmid (pBR322) DNA relaxation by pfTopoI", "type": "biochemical, Plasmodium falciparum", "conditions": "peptide 1.3 to 50 μM; even at concentrations up to 50 μM; 30 min, 37°C"}, "DNA": {"test_system": "DNA", "experiment": "Unspecific DNA binding", "conditions": "confirmed in the present study, data not shown"}, "bacteriophage λ-Int": {"test_system": "bacteriophage λ-Int", "conditions": "ref [39], [40]; cited from earlier work"}, "[2]": {"test_system": "type IB Topo of Vaccinia virus (vvTopoI)", "conditions": "cited from earlier work; for step of catalysis inhibited (vvTopoI): DNA relaxation by vvTopoI; for step of catalysis inhibited (vvTopoI) / inhibition of vvTopoI relaxation activity: ref [39], [40]; for activity against vvTopoI: from rescreening of peptide combinatorial library against vvTopoI, ref [40]"}},
  "note": "Bridges are numbered along the chain shown (N, C = ends). Where no end group is shown, it is not given here.",
  "data": [
    {"substance": "WYCRCK (disulfide 3-5 (inferred)) [synthetic hexapeptide purchased from GenScript]", "values": [
      {"measurement": "effect on relaxation activity of pfTopoI", "setting": "[1]", "result": "no effect"},
      {"measurement": "DNA binding capacity", "setting": "DNA", "result": "unspecific DNA binding capacity"},
      {"measurement": "step of catalysis inhibited (λ-Int)", "setting": "bacteriophage λ-Int", "result": "specific inhibition of the cleavage and not the ligation step of catalysis"},
      {"measurement": "step of catalysis inhibited (vvTopoI)", "setting": "[2]", "result": "specific inhibition of the cleavage and not the ligation step of catalysis"},
      {"measurement": "activity against vvTopoI", "setting": "[2]", "result": "high activity"},
      {"measurement": "inhibition of vvTopoI relaxation activity", "setting": "[2]", "result": "inhibited the relaxation activity of vvTopoI"}
    ]},
    {"substance": "KCCRCK (disulfide (positions not given here)) [synthetic hexapeptide purchased from GenScript]", "values": [
      {"measurement": "effect on relaxation activity of pfTopoI", "setting": "[1]", "result": "no effect"},
      {"measurement": "DNA binding capacity", "setting": "DNA", "result": "unspecific DNA binding capacity"},
      {"measurement": "step of catalysis inhibited (λ-Int)", "setting": "bacteriophage λ-Int", "result": "specific inhibition of the cleavage and not the ligation step of catalysis"},
      {"measurement": "step of catalysis inhibited (vvTopoI)", "setting": "[2]", "result": "specific inhibition of the cleavage and not the ligation step of catalysis"},
      {"measurement": "activity against vvTopoI", "setting": "[2]", "result": "high activity"},
      {"measurement": "inhibition of vvTopoI relaxation activity", "setting": "[2]", "result": "inhibited the relaxation activity of vvTopoI"}
    ]}
  ]
}
